# Measured values taken from US6303596A, “Use of taurolidine for treatment of leukemias” (priority 2000, dated 2001).
# Assays:
# Type in all cases: cell-based, human
# all other cell lines = test: LDH release (cell membrane integrity), all other cell lines; conditions: all samples from all other cell lines (n=3); 240 min
# Method: In these experiments, integrity of cell membranes following taurolidine treatment was assessed by exclusion of trypan blue and by measuring the release of LDH in MM6, K-562, HL-60, and REH cells. Since BCS contains significant amounts of LDH, these experiments were conducted on cells cultured in AIM-V+0.01% BCS. Four hour treatment of cells was conducted in AIM-V containing 0.01% BCS in order to allow subsequent LDH assay without interference from BCS (which occurs in when normal culture medium, containing 10% BCS, is used). Thus, MM6 cells (5×10^5 cells/ml) were treated with taurolidine for four hours in AIM-V+0.01% BCS, after which an aliquot of the cell suspension was removed for measurement of LDH release. A parallel aliquot of cells was lysed by three cycles of freeze/thaw and the quantity of LDH released was taken to be 100%. Remaining cells were rinsed in HBSS and resuspended in growth medium for measurement of growth rates.
# HL-60 cells treated with 50 μl taurolidine. In these samples, LDH present in the culture medium was 8.3±2.3% of that released by completely lysed cells, compared with 2.3±0.8% measured in control cultures. […] After 4 hour treatment, cells were rinsed and returned to growth medium and monitored for viability and growth over the following 3 days. […]
# REH = test: TUNEL / propidium iodide flow cytometry, REH
# Method: (§1) In the second method, DNA fragmentation was detected via TUNEL assay according to the manufacturer's instructions. With this methodology, 2×10^6 cells were fixed with 2% paraformaldehyde, permeabilized with 0.1% Triton X-100/0.1% citrate, incubated at 37° C. with terminal deoxynucleotidyl transferase and FITC-dUTP, rinsed and analyzed by flow cytometry. Enhanced FITC signal indicates apoptosis-specific DNA fragmentation. Gavriali, et al, "Identification of programmed cell death in situ via specific labeling of nuclear DNA fragmentation," J Cell Biol 119:493 (1992). Parallel aliquots of unfixed cells were treated with PI and FITC-conjugated anti-CD14 and analyzed by flow cytometry, in order to identify cells with permeable cell membranes (since PI binds to DNA but is excluded from cells with intact plasma membranes) and also to determine the cell-specificity of the apoptotic signal.
# (§2) In another study, TUNEL assays were performed on all cell lines 6 hours after cells were initially exposed to taurolidine (cells were treated for 4 hours, rinsed, and then incubated for 2 more hours before TUNEL assay was performed).
# . Taurolidine and anisomycin induced apoptosis in MM6, HL-60, and Jurkat cells (Table VIII). MM6 and HL-60 cells were similarly effected, with >80% TUNEL-positive cells after 6 hours. Jurkat cells were less sensitive, with approximately 50% of cells induced to undergo apoptosis after taurolidine treatment. After 6 hours, 73% of anisomycin-treated REH cells were apoptotic, with less than 20% of taurolidine-treated REH cells being TUNEL-positive. However, assay of cells 24 hours after
# ^a Analysis by flow cytometry after staining cells with propidium
# iodide and processing for TUNEL.
# Data are percent of total cell-size events, and are expressed as mean ±
# Cells were treated for 4 hours with taurolidine (100 μg/ml) or
# anisomycin (1 μg/ml), and then assayed at 6 hours.
# Data are percent of total cell-sized events, and are expressed as mean ±
# anisomycin (1 μg/ml), and then assayed at 24 hours.
# TNFα = test: LPS-induced TNFα expression/secretion by MM6 cells, ELISA; conditions: 4 h
# Method: FIG. 3A and FIG. 3B are graphs depicting taurolidine inhibition of LPS-induced alpha […] (TNFα) expression by monocytic cells as determined by assay procedures. FIG. 3A represents MM6 cells; FIG. 3B represents PBMC. The cells were induced with LPS (hatched bars: 100 ng/ml LPS in RPMI+10% BCS; solid bars: 10 ng/ml in AIM-V+0.01% BCS) in the presence of varying concentrations of taurolidine. After four hours, cell supernatants were collected for TNFα ELISA. Data are expressed as percent of TNFα levels measured in cell cultures treated with LPS alone (no taurolidine or vehicle). Experiments were performed with duplicate samples and were repeated at least three times. Values shown in FIG. 3A are from a representative experiment. Values shown in FIG. 3B are mean±SEM of three experiments.
# All cells were cultured in a 5% CO2 atmosphere at 37° C. MM6 cells were grown in RPMI supplemented with 10% BCS, 2 mM L-glutamine, and 50 μg/ml gentamicin (RPMI+10% BCS). In some experiments, MM6 cells were rinsed once with HBSS without Ca^++ or Mg^++ and once with AIM-V before finally being resuspended in AIM-V supplemented with 0.01% BCS (AIM-V+0.01% BCS). […] AIM-V was supplemented with a low amount of BCS (0.01%) in order to provide a source of LPS-binding protein, which enhances the response of monocytic cells to LPS. Ulevitch, R. J. and Tobias, P. S., "Recognition of endotoxin by cells leading to transmembrne signaling," Curr Opin Immunol 6:125 (1994). HL-60, REH, and Jurkat were cultured in RPMI supplemented with 10% heat inactivated fetal bovine serum (FBS), 2 mM L-glutamine, and 50 μg/ml gentamicin. ECV304 were cultured in M199 supplemented with 10% FBS, mM L-glutamine, and 50 μg/ml gentamicin. GM5387 was cultured in MEM supplemented with 20% FBS, 2 mM L-glutamine, and 50 μg/ml gentamicin.
# For induction of TF or TNFα expression, MM6 cells or PBMC were cultured either in RPMI supplemented with 10% BCS or in AIM-V+0.01% BCS, and stimulated by adding LPS to final concentrations of 10 to 100 ng/ml. […]
# GM5387 = test: TUNEL / propidium iodide flow cytometry, GM5387; conditions: GM5387, 6 hours after treatment
# Method: as §1, §2
# . Taurolidine and anisomycin induced apoptosis in MM6, HL-60, and Jurkat cells (Table VIII). MM6 and HL-60 cells were similarly effected, with >80% TUNEL-positive cells after 6 hours. […]
# Data are percent of total cell-size events, and are expressed as mean ± […]
compound,measurement,setting,value
"O=S1(=O)CCN(CN2CCS(=O)(=O)NC2)CN1 [taurolidine, 4,4'-methylenebis(perhydro-1,2,4-thiadiazin 1,1-dioxide)]","LDH levels, % of lysed cell samples",all other cell lines,≤ 7%
same,rate of apoptosis induction versus anisomycin,REH,less rapidly than with anisomycin treatment
same,% TUNEL-positive,"REH; taurolidine 100 μg/ml or anisomycin 1 μg/ml for 4 h, assayed at 24 hours, mean ± SD",81.4 ± 4.4%
same,effect on LPS-induced TNFα secretion,"TNFα; MM6, intermediate concentrations, particularly 25 μg/ml taurolidine",markedly stimulating TNFα secretion
same,inhibition of LPS-induced TNFα secretion,"TNFα; MM6, taurolidine 75 μg/ml",maximal inhibition
same,DNA fragmentation (TUNEL positivity),GM5387,did not demonstrate evidence for fragmentation of DNA
